In one data set the test system is S. aureus. Put plainly: S. aureus skin colonization after epicutaneous pretreatment of mouse skin (CFU). The format is in vivo, C57BL/6 WT mice. Conditions: treatment of mouse skin; text to Fig 1b. As for the experimental part: Fig. 1 Lugdunin sensitizes epithelial cells for innate immune defense. a Primary human keratinocytes (PHKs) were pretreated with S. epidermidis conditioned medium (CM), indicated lugdunin concentrations, or the combination of both for 20 h. Subsequently, cells were infected with S. aureus for 1.5 h followed by cell lysis and determination of colony-forming units (CFUs). Shown is one representative experiment of three independent experiments with six technical replicates ± s.e.m. n.s., not significant. b Dorsal skin of mice was pretreated with S. epidermidis CM, 1.5 µg lugdunin alone or in combination with S. epidermidis CM for 24 h. Subsequently, S. aureus CFUs were determined. Horizontal lines represent the mean of each group ± s.e.m. c PHKs were treated with 2 μM lugdunin or with S. epidermidis CM alone or in combination for 20 h and subsequently expression of indicated antimicrobial peptides (AMPs) (respective protein names in brackets) was analyzed and normalized to actin. Shown is one representative experiment of three independent experiments with two technical replicates ± s.e.m. d PHKs were treated with 2 µM lugdunin or 100 ng/mL Pam2Cys for 5 h and subsequently the concentration of indicated cytokines in the supernatant was analyzed by LEGENDplex^TM (BioLegend). […]

For another data set, the system named is PHKs. The experiment in a line: Viability assay (MUH) in PHKs. The format is cell-based, human. The protocol:
Effects of the used peptides on keratinocytes, PBMCs, and nasal and tracheal epithelial cell viability were tested using 4-methylumbelliferyl heptanoate (MUH). Briefly, cells were treated with peptides and respective peptide combinations for 24 h, followed by incubation with 100 μg/mL MUH (Sigma-Aldrich) in PBS for 1 h at 37 °C. The absolute fluorescence intensity at λex of 355 nm and λem of 460 nm was measured using a Fluoroskan II (Labsystems).
10 a: PHKs were treated with increasing concentrations of lugdunin for 24 hours and 11 subsequently expression of CAMP (LL-37) was analyzed and normalized to actin. […]
14 b+c: PHKs were treated with increasing concentrations of lugdunin for 24 hours and 15 subsequently the concentration of LL-37 and CXCL8 in the supernatant was analyzed . […]
18 d: Representative hematoxylin-eosin-stained paraffin-embedded human 3D skin 19 equivalent. […] After 24 hours, the concentration of LL-37 and CXCL8 in the 21 supernatant was analyzed. […] Significant differences to control treatments were analyzed 23 by an unpaired two-tailed t-test (*P<0.05). […]
26 f: PHKs were treated with 2 µM natural lugdunin, synthetic lugdunin, N -Acetyl lugdunin 27 (grey bars) or 100 ng/mL Pam2Cys or Pam3Cys (white bars) as positive control for 5 28 hours and subsequently expression of CXCL8 was analyzed and normalized to actin. […]

For Lugdunin, the “reduction of colonizing S. aureus (in words)” value in the data set on S. aureus is “slight, but not significant, reduction”. Moreover, the “toxicity to the cell types analyzed (in words)” value in the data set with PHKs is reported as “not toxic”.
